Experimental data as given in US20050042213A1, “Methods and pharmaceutical compositions for modulating heparanase activation and uses thereof” (InSight Biopharmaceuticals Ltd., priority 2003, published 2005).
Where two headings read alike, the source gives them in different places. Where no end group is shown, it is not given here.

Experiments:
Heparanase = biological target: T1, Heparanase (Homo sapiens, UniProt Q9Y251, K307R); experiment: Dimerization assay (H53 hetero-dimer formation, di-methyl-methylene-blue); assay type: biochemical
T1 sequence (Q9Y251 158-543 K307R limits assumed): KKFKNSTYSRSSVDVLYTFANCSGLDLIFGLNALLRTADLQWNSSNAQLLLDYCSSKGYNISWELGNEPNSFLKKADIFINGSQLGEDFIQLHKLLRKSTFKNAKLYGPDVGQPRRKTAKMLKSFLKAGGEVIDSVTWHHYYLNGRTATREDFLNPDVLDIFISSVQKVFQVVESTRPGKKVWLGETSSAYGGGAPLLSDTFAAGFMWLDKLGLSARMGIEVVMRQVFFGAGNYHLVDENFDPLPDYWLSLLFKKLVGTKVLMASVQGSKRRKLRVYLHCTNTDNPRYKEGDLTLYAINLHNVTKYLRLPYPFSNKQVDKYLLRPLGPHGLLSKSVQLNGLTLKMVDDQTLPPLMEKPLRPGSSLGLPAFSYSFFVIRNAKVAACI
T1 sequence (Q9Y251 36-109 limits assumed): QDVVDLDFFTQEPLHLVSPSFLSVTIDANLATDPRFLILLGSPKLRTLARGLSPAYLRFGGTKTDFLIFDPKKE
Excerpt: Dimerization assay—Activation assay using di-methyl-methylene-blue was effected as described in U.S. Pat. No. 6,190,875.

pro-heparanase (H60) [1] = biological target: T2, pro-heparanase (H60) (Homo sapiens, UniProt Q9Y251, K307R); experiment: Processing and activation of pro-heparanase in vitro with cathepsin B and D in the presence of heparin (Western blot, DMB assay); assay type: biochemical; conditions: cathepsin B and/or cathepsin D
T2 sequence (Q9Y251 36-543 K307R): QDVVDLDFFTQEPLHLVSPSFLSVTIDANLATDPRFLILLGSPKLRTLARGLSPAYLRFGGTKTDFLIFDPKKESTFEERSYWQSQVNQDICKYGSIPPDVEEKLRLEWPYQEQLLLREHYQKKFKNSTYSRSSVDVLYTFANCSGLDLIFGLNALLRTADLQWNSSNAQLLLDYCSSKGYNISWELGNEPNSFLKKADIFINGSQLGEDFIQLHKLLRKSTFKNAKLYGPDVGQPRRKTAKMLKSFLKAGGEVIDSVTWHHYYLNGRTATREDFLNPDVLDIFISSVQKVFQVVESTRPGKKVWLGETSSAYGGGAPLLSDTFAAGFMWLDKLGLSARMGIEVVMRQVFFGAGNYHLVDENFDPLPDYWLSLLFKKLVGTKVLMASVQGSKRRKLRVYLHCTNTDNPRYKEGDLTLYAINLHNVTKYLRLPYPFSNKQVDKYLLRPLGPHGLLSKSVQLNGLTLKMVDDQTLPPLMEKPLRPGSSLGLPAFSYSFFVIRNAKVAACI
Procedure: Western blot analysis—Western blot analysis was performed using rabbit anti-heparanase polyclonal antibodies as described in U.S. Pat. Nos. 6,177,545; 6,531,129; and 6,562,950.
Following a 17 hours incubation at room temperature, reaction products were filtered to a new plate and quantified using di-methyl-methylene-blue, as described in U.S. Pat. No. 6,190,875.
Assay mixtures contained heparin (Sigma, H3393) or heparinomimetic molecules ethane-1,2-disulfonic acid (Sigma, E2269) and heparin disaccharide IVA (Sigma, H0895) for western blot analysis or heparin sepharose beads for activation assays, in 200 mM acetate buffer, pH 5.5, 4 mM EDTA and 8 mM DTT, with either Cathepsin B, Cathepsin D or both. Following a 17 hours of incubation at room temperature, reaction products were examined by western blot analysis or filtered to a new plate and quantified using di-methyl-methylene-blue, as described in U.S. Pat. No. 6,190,875 for activation assay.

pro-heparanase (H60) [2] = biological target: T2, pro-heparanase (H60); experiment: Circular dichroism spectrometry of pro-heparanase
Procedure: Circular Dichroism spectrometry—Circular Dichroism spectra were recorded using a JASCO 500 spetropolarimeter. Far Ultraviolet measurements (260-200 nm) were performed in a 0.1 mm demountable cuvette at 25° C., scanning at a rate of 10 nm/min. Pro-heparanase was assayed at a concentration of 0.72 mg/ml in 20 mM sodium phosphate buffer pH 6.8 supplemented with 300 mM NaCl. Effect of heparin on pro-heparanase spectra was determined at a concentration of 100 μM, and the inhibitor was added at a concentration of 15 μM. Base-line recordings were performed in the presence and absence of heparin to correct the pro-heparanase spectra.

[3] = inhibition of H53 hetero-dimer formation by H8-derived peptides, read-out: IC50 H53

Row | Substance | IC50 (Heparanase; [3]) [µM] | other results
1 | CTWHHYYLNGRTATR [Pep-25] | – | IC50 (Heparanase; H45-derived peptide, inhibition of H53 hetero-dimer formation, read-out: IC50 Heparanase): 21 µM
2 | LRTLARGLSPAYL [Compound P8-5] | 18 | –
3 | PRFLILLGSPKLR [Compound P8-4] | 2.3 | –
4 | RFLILL [Compound P8-18] | 5 | –
5 | heparin [reference compound] | – | processing of pro-heparanase in vitro (Western blot) (pro-heparanase (H60) [1]): heparanase was processed by cathepsin D; conformational change in pro-heparanase (pro-heparanase (H60) [2]): significant conformational change

The next lines start with results.

Row | IC50 (Heparanase; [3]) [µM] | Substance | other results
6 | 6 | DPRFLILL [Compound P8-16] | –
7 | 8 | FLILLGSPKLRTL [Compound P8-8] | –
8 | 1.4 | PRFLILL [Compound P8-11] | –
